# According to PubChem BioAssay (NCI):
#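 All cell lines were grown in 96-well plates and treated with compound for 48 hours. Here, GI50 denotes the concentration required for 50% inhibition of growth. TGI: total growth inhibition.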
# Assays:
# Experiment in all cases: growth of human tumour cells (NCI), 48 h
# 786-0 renal = tested on: 786-0 renal
# A498 renal = tested on: A498 renal
# ACHN renal = tested on: ACHN renal
# BT-549 breast = tested on: BT-549 breast
# CAKI-1 renal = tested on: CAKI-1 renal
# CCRF-CEM leukemia = tested on: CCRF-CEM leukemia
# COLO 205 colon = tested on: COLO 205 colon
# DU-145 prostate = tested on: DU-145 prostate
# HCC-2998 colon = tested on: HCC-2998 colon
# HCT-116 colon = tested on: HCT-116 colon
# HCT-15 colon = tested on: HCT-15 colon
# HL-60(TB) leukemia = tested on: HL-60(TB) leukemia
# HOP-62 NSCLC = tested on: HOP-62 NSCLC
# HOP-92 NSCLC = tested on: HOP-92 NSCLC
# HS 578T breast = tested on: HS 578T breast
# HT29 colon = tested on: HT29 colon
# IGROV1 ovarian = tested on: IGROV1 ovarian
# K-562 leukemia = tested on: K-562 leukemia
# M14 melanoma = tested on: M14 melanoma
# MALME-3M melanoma = tested on: MALME-3M melanoma
# MCF7 breast = tested on: MCF7 breast
# MDA-MB-435 = tested on: MDA-MB-435
# MOLT-4 leukemia = tested on: MOLT-4 leukemia
# NCI-H226 lung = tested on: NCI-H226 lung
# NCI-H23 lung = tested on: NCI-H23 lung
# NCI-H460 lung = tested on: NCI-H460 lung
# NCI-H522 lung = tested on: NCI-H522 lung
# NCI/ADR-RES ovarian = tested on: NCI/ADR-RES ovarian
# OVCAR-3 ovarian = tested on: OVCAR-3 ovarian
# OVCAR-4 ovarian = tested on: OVCAR-4 ovarian
# OVCAR-5 ovarian = tested on: OVCAR-5 ovarian
# PC-3 prostate = tested on: PC-3 prostate
# RPMI-8226 leukemia = tested on: RPMI-8226 leukemia
# RXF 393 renal = tested on: RXF 393 renal
# SF-268 CNS = tested on: SF-268 CNS
# SF-539 CNS = tested on: SF-539 CNS
# SK-MEL-2 melanoma = tested on: SK-MEL-2 melanoma
# SK-MEL-28 melanoma = tested on: SK-MEL-28 melanoma
# SK-MEL-5 melanoma = tested on: SK-MEL-5 melanoma
# SK-OV-3 ovarian = tested on: SK-OV-3 ovarian
# SN12C renal = tested on: SN12C renal
# SNB-19 CNS = tested on: SNB-19 CNS
# SNB-75 CNS = tested on: SNB-75 CNS
# SR leukemia = tested on: SR leukemia
# SW-620 colon = tested on: SW-620 colon
# T-47D breast = tested on: T-47D breast
# TK-10 renal = tested on: TK-10 renal
# U251 CNS = tested on: U251 CNS
# UACC-257 melanoma = tested on: UACC-257 melanoma
# UACC-62 melanoma = tested on: UACC-62 melanoma
# UO-31 renal = tested on: UO-31 renal
smiles,measurement,setting,value
N=C(N)c1ccc(-c2ccc(-c3cccs3)o2)cc1,GI50,786-0 renal,1.89 µM
same,TGI,786-0 renal,3.44 µM
same,GI50,A498 renal,1.8 µM
same,TGI,A498 renal,3.86 µM
same,GI50,ACHN renal,1.86 µM
same,TGI,ACHN renal,3.51 µM
same,GI50,BT-549 breast,2.05 µM
same,TGI,BT-549 breast,4.02 µM
same,GI50,CAKI-1 renal,2.14 µM
same,TGI,CAKI-1 renal,5.2 µM
same,GI50,CCRF-CEM leukemia,2.33 µM
same,TGI,CCRF-CEM leukemia,5.9 µM
same,GI50,COLO 205 colon,1.91 µM
same,TGI,COLO 205 colon,3.49 µM
same,GI50,DU-145 prostate,2.91 µM
same,TGI,DU-145 prostate,7.31 µM
same,GI50,HCC-2998 colon,1.87 µM
same,TGI,HCC-2998 colon,3.41 µM
same,GI50,HCT-116 colon,1.83 µM
same,TGI,HCT-116 colon,3.23 µM
same,GI50,HCT-15 colon,1.86 µM
same,TGI,HCT-15 colon,3.8 µM
same,GI50,HL-60(TB) leukemia,1.82 µM
same,TGI,HL-60(TB) leukemia,4.11 µM
same,GI50,HOP-62 NSCLC,2.04 µM
same,TGI,HOP-62 NSCLC,4.32 µM
same,GI50,HOP-92 NSCLC,1.4 µM
same,TGI,HOP-92 NSCLC,3.1 µM
same,GI50,HS 578T breast,2.14 µM
same,TGI,HS 578T breast,5.25 µM
same,GI50,HT29 colon,1.89 µM
same,TGI,HT29 colon,3.7 µM
same,GI50,IGROV1 ovarian,1.92 µM
same,TGI,IGROV1 ovarian,3.83 µM
same,GI50,K-562 leukemia,2.27 µM
same,TGI,K-562 leukemia,5.72 µM
same,GI50,M14 melanoma,1.9 µM
same,TGI,M14 melanoma,3.39 µM
same,GI50,MALME-3M melanoma,1.91 µM
same,TGI,MALME-3M melanoma,3.42 µM
same,GI50,MCF7 breast,1.69 µM
same,TGI,MCF7 breast,3.29 µM
same,GI50,MDA-MB-435,1.76 µM
same,TGI,MDA-MB-435,3.39 µM
same,GI50,MOLT-4 leukemia,2.34 µM
same,TGI,MOLT-4 leukemia,4.89 µM
same,GI50,NCI-H226 lung,2.07 µM
same,TGI,NCI-H226 lung,5.13 µM
same,GI50,NCI-H23 lung,3.63 µM
same,TGI,NCI-H23 lung,13.2 µM
same,GI50,NCI-H460 lung,1.79 µM
same,TGI,NCI-H460 lung,3.41 µM
same,GI50,NCI-H522 lung,2.01 µM
same,TGI,NCI-H522 lung,3.89 µM
same,GI50,NCI/ADR-RES ovarian,2.88 µM
same,TGI,NCI/ADR-RES ovarian,7.63 µM
same,GI50,OVCAR-3 ovarian,2.25 µM
same,TGI,OVCAR-3 ovarian,4.92 µM
same,GI50,OVCAR-4 ovarian,2.35 µM
same,TGI,OVCAR-4 ovarian,5.72 µM
same,GI50,OVCAR-5 ovarian,2.02 µM
same,TGI,OVCAR-5 ovarian,6.2 µM
same,GI50,PC-3 prostate,2.13 µM
same,TGI,PC-3 prostate,5.56 µM
same,GI50,RPMI-8226 leukemia,2.12 µM
same,TGI,RPMI-8226 leukemia,4.98 µM
same,GI50,RXF 393 renal,1.69 µM
same,TGI,RXF 393 renal,3.46 µM
same,GI50,SF-268 CNS,2.19 µM
same,TGI,SF-268 CNS,5.17 µM
same,GI50,SF-539 CNS,1.68 µM
same,TGI,SF-539 CNS,3.14 µM
same,GI50,SK-MEL-2 melanoma,2.19 µM
same,TGI,SK-MEL-2 melanoma,4.04 µM
same,GI50,SK-MEL-28 melanoma,1.71 µM
same,TGI,SK-MEL-28 melanoma,3.11 µM
same,GI50,SK-MEL-5 melanoma,1.65 µM
same,TGI,SK-MEL-5 melanoma,3.02 µM
same,GI50,SK-OV-3 ovarian,2.4 µM
same,TGI,SK-OV-3 ovarian,5.77 µM
same,GI50,SN12C renal,1.97 µM
same,TGI,SN12C renal,4.38 µM
same,GI50,SNB-19 CNS,2.43 µM
same,TGI,SNB-19 CNS,7.81 µM
same,GI50,SNB-75 CNS,1.71 µM
same,TGI,SNB-75 CNS,3.5 µM
same,GI50,SR leukemia,2.99 µM
same,TGI,SR leukemia,8.54 µM
same,GI50,SW-620 colon,1.77 µM
same,TGI,SW-620 colon,3.37 µM
same,GI50,T-47D breast,2.17 µM
same,TGI,T-47D breast,4.88 µM
same,GI50,TK-10 renal,1.95 µM
same,TGI,TK-10 renal,3.44 µM
same,GI50,U251 CNS,1.76 µM
same,TGI,U251 CNS,3.37 µM
same,GI50,UACC-257 melanoma,1.98 µM
same,TGI,UACC-257 melanoma,3.63 µM
same,GI50,UACC-62 melanoma,1.75 µM
same,TGI,UACC-62 melanoma,3.35 µM
same,GI50,UO-31 renal,1.9 µM
same,TGI,UO-31 renal,3.74 µM
